Where “and” joins values, the source holds several entries; their conditions need not be identical. Equal values may be shown once.
Tested on: BDF1 mice, Adenocarcinoma 755 s.c., tumor weight T/C
Assay: NCI In Vivo Anticancer Drug Screen. Data for tumor model Adenocarcinoma 755 (subcutaneous) in B6D2F1 (BDF1) mice
Conditions: endpoint: mean tumor weight, higher = larger tumour
Procedure, shortened: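 Transplantable tumor implanted; mice dosed with compound or vehicle; survival or tumor size recorded; ratio of treated to vehicle control reported.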

[1] = dose: 6.0 mg/kg/injection, schedule: Q01DX011 (ip), vehicle: carboxymethylcellulose (CMC)
[2] = dose: 6.0 mg/kg/injection, schedule: Q01DX011 (ip), vehicle: other
[3] = dose: 25.0 mg/kg/injection, schedule: Q01DX011 (ip), vehicle: carboxymethylcellulose (CMC)
[4] = dose: 25.0 mg/kg/injection, schedule: Q01DX011 (ip), vehicle: methylcellulose (MC)

Nc1c(Br)cc2c(c1Br)Cc1cc([N+](=O)[O-])ccc1-2
T/C (dose: 1.5 mg/kg/injection, schedule: Q01DX011 (ip), vehicle: carboxymethylcellulose (CMC)): 85 % of control | T/C (dose: 3.0 mg/kg/injection, schedule: Q01DX011 (ip), vehicle: carboxymethylcellulose (CMC)): 63 % of control | T/C [1]: 43 % of control | T/C [2]: 94 % of control | T/C (dose: 6.25 mg/kg/injection, schedule: Q01DX011 (ip), vehicle: saline): 109 % of control | T/C (dose: 12.0 mg/kg/injection, schedule: Q01DX011 (ip), vehicle: carboxymethylcellulose (CMC)): 22 % of control | T/C (dose: 12.5 mg/kg/injection, schedule: Q01DX011 (ip), vehicle: saline): 69 % of control | T/C [3]: 7 % of control | T/C (dose: 25.0 mg/kg/injection, schedule: Q01DX011 (ip), vehicle: saline): 82 % of control | T/C (dose: 27.5 mg/kg/injection, schedule: Q01DX011 (ip), vehicle: saline): 46 % of control | T/C (dose: 50.0 mg/kg/injection, schedule: Q01DX011 (ip), vehicle: carboxymethylcellulose (CMC)): 12 % of control | T/C (dose: 50.0 mg/kg/injection, schedule: Q01DX011 (ip), vehicle: saline): 57 % of control | T/C (dose: 50.0 mg/kg/injection, schedule: Q01DX011 (oral), vehicle: saline): 90 % of control | T/C (dose: 55.0 mg/kg/injection, schedule: Q01DX011 (ip), vehicle: saline): 29 % of control | T/C (dose: 100.0 mg/kg/injection, schedule: Q01DX011 (ip), vehicle: carboxymethylcellulose (CMC)): 19 % of control | T/C (dose: 100.0 mg/kg/injection, schedule: Q01DX011 (ip), vehicle: saline): 63 % of control | T/C (dose: 100.0 mg/kg/injection, schedule: Q01DX011 (oral), vehicle: saline): 72 % of control | T/C (dose: 110.0 mg/kg/injection, schedule: Q01DX011 (ip), vehicle: other): 17 % of control and 30 % of control | T/C (dose: 110.0 mg/kg/injection, schedule: Q01DX011 (ip), vehicle: saline): 21 % of control and 38 % of control | T/C (dose: 200.0 mg/kg/injection, schedule: Q01DX011 (ip), vehicle: carboxymethylcellulose (CMC)): 8 % of control | T/C (dose: 200.0 mg/kg/injection, schedule: Q01DX011 (ip), vehicle: saline): 46 % of control | T/C (dose: 200.0 mg/kg/injection, schedule: Q01DX011 (oral), vehicle: saline): 91 % of control | T/C (dose: 225.0 mg/kg/injection, schedule: Q01DX011 (ip), vehicle: other): 17 % of control and 32 % of control | T/C (dose: 400.0 mg/kg/injection, schedule: Q01DX011 (oral), vehicle: saline): 117 % of control | T/C (dose: 450.0 mg/kg/injection, schedule: Q01DX011 (ip), vehicle: other): 6 % of control | T/C (dose: 800.0 mg/kg/injection, schedule: Q01DX011 (oral), vehicle: saline): 66 % of control | T/C (dose: 900.0 mg/kg/injection, schedule: Q01DX011 (ip), vehicle: other): 15 % of control

CC(C)CNS(=O)(=O)c1ncnc2nc[nH]c12
T/C [1]: 62 % of control | T/C [2]: 81 % of control | T/C (dose: 12.0 mg/kg/injection, schedule: Q01DX011 (ip), vehicle: other): 96 % of control | T/C (dose: 12.5 mg/kg/injection, schedule: Q01DX011 (ip), vehicle: carboxymethylcellulose (CMC)): 24 % of control | T/C (dose: 19.0 mg/kg/injection, schedule: Q01DX011 (ip), vehicle: carboxymethylcellulose (CMC)): 12 % of control | T/C [3]: 8 % of control | T/C (dose: 25.0 mg/kg/injection, schedule: Q01DX011 (ip), vehicle: other): 34 % of control | T/C (dose: 50.0 mg/kg/injection, schedule: Q01DX011 (ip), vehicle: other): 6 % of control | T/C (dose: 75.0 mg/kg/injection, schedule: Q01DX011 (ip), vehicle: carboxymethylcellulose (CMC)): 2 % of control | T/C (dose: 100.0 mg/kg/injection, schedule: Q01DX011 (ip), vehicle: other): 10 % of control

O=C(O)c1cc(Cl)nc(Cl)n1
T/C (dose: 31.0 mg/kg/injection, schedule: Q01DX011 (ip), vehicle: methylcellulose (MC)): 92 % of control | T/C (dose: 62.0 mg/kg/injection, schedule: Q01DX011 (ip), vehicle: methylcellulose (MC)): 103 % of control | T/C (dose: 125.0 mg/kg/injection, schedule: Q01DX011 (ip), vehicle: methylcellulose (MC)): 105 % of control

COc1cc(-c2ccc(N=Nc3c(O)ccc4ccccc34)c(OC)c2)ccc1N=Nc1ccc2c(S(=O)(=O)O)cc(S(=O)(=O)O)c(N)c2c1O
T/C (dose: 62.0 mg/kg/injection, schedule: Q01DX011 (ip), vehicle: carboxymethylcellulose (CMC)): 63 % of control and 75 % of control | T/C (dose: 112.0 mg/kg/injection, schedule: Q01DX011 (ip), vehicle: carboxymethylcellulose (CMC)): 60 % of control and 79 % of control | T/C (dose: 225.0 mg/kg/injection, schedule: Q01DX011 (ip), vehicle: carboxymethylcellulose (CMC)): 39 % of control and 64 % of control | T/C (dose: 450.0 mg/kg/injection, schedule: Q01DX011 (ip), vehicle: carboxymethylcellulose (CMC)): 29 % of control

S=c1nc[nH]c2c1ncn2C1CCCC1
T/C (dose: 3.0 mg/kg/injection, schedule: Q01DX011 (ip), vehicle: methylcellulose (MC)): 69 % of control | T/C (dose: 6.0 mg/kg/injection, schedule: Q01DX011 (ip), vehicle: methylcellulose (MC)): 50 % of control | T/C (dose: 12.0 mg/kg/injection, schedule: Q01DX011 (ip), vehicle: methylcellulose (MC)): 22 % of control | T/C (dose: 15.0 mg/kg/injection, schedule: Q01DX011 (ip), vehicle: carboxymethylcellulose (CMC)): 12 % of control and 17 % of control | T/C (dose: 15.0 mg/kg/injection, schedule: Q01DX011 (oral), vehicle: carboxymethylcellulose (CMC)): 13 % of control | T/C [4]: 4 % of control and 5 % of control | T/C (dose: 30.0 mg/kg/injection, schedule: Q01DX011 (ip), vehicle: carboxymethylcellulose (CMC)): 6 % of control and 10 % of control | T/C (dose: 30.0 mg/kg/injection, schedule: Q01DX011 (oral), vehicle: carboxymethylcellulose (CMC)): 7 % of control | T/C (dose: 60.0 mg/kg/injection, schedule: Q01DX011 (ip), vehicle: carboxymethylcellulose (CMC)): 2 % of control and 3 % of control | T/C (dose: 60.0 mg/kg/injection, schedule: Q01DX011 (oral), vehicle: carboxymethylcellulose (CMC)): 4 % of control | T/C (dose: 120.0 mg/kg/injection, schedule: Q01DX011 (oral), vehicle: carboxymethylcellulose (CMC)): 3 % of control | T/C (dose: 162.0 mg/kg/injection, schedule: Q01DX001 (ip), vehicle: carboxymethylcellulose (CMC)): 94 % of control | T/C (dose: 325.0 mg/kg/injection, schedule: Q01DX001 (ip), vehicle: carboxymethylcellulose (CMC)): 7 % of control | T/C (dose: 1300.0 mg/kg/injection, schedule: Q01DX001 (ip), vehicle: carboxymethylcellulose (CMC)): 1 % of control

C[C@]12C[C@H](O)[C@H]3[C@@H](CCC4=CC(=O)CC[C@@]43C)[C@@H]1CC[C@@H]2C(=O)CF
T/C (dose: 25.0 mg/kg/injection, schedule: Q01DX011 (sc), vehicle: steriod suspending solution): 121 % of control | T/C (dose: 200.0 mg/kg/injection, schedule: Q01DX011 (sc), vehicle: steriod suspending solution): 79 % of control | T/C (dose: 400.0 mg/kg/injection, schedule: Q01DX011 (sc), vehicle: steriod suspending solution): 79 % of control

Nc1nc2nc(/N=N/SCCO)[nH]c2c(=O)[nH]1
T/C [4]: 65 % of control | T/C (dose: 50.0 mg/kg/injection, schedule: Q01DX011 (ip), vehicle: methylcellulose (MC)): 39 % of control

O=C1NC(=O)C2(CCCc3ccc(N(CCCl)CCCl)cc32)N1 (stereo not drawn)
T/C (dose: 3.5 mg/kg/injection, schedule: Q01DX011 (ip), vehicle: carboxymethylcellulose (CMC)): 86 % of control | T/C (dose: 3.5 mg/kg/injection, schedule: Q01DX011 (ip), vehicle: other): 80 % of control | T/C (dose: 7.0 mg/kg/injection, schedule: Q01DX011 (ip), vehicle: carboxymethylcellulose (CMC)): 83 % of control | T/C (dose: 7.0 mg/kg/injection, schedule: Q01DX011 (ip), vehicle: other): 112 % of control | T/C (dose: 14.0 mg/kg/injection, schedule: Q01DX011 (ip), vehicle: carboxymethylcellulose (CMC)): 56 % of control | T/C (dose: 14.0 mg/kg/injection, schedule: Q01DX011 (ip), vehicle: other): 51 % of control | T/C (dose: 28.0 mg/kg/injection, schedule: Q01DX011 (ip), vehicle: carboxymethylcellulose (CMC)): 30 % of control | T/C (dose: 28.0 mg/kg/injection, schedule: Q01DX011 (ip), vehicle: other): 56 % of control | T/C (dose: 55.0 mg/kg/injection, schedule: Q01DX011 (ip), vehicle: carboxymethylcellulose (CMC)): 2 % of control | T/C (dose: 55.0 mg/kg/injection, schedule: Q01DX011 (ip), vehicle: other): 13 % of control
